The record followed here is patent US4425350A, “5,6,6a,7-Tetrahydro-4H-dibenz(de,g)-isoquinoline derivatives, and their use for treating central nervous system disorders” (Warner-Lambert Company, priority 1980, dated 1984).

Structures are written as SMILES.

A short description of data set [1]: Acute toxicity (LD50), intragastral administration, male mice. Conditions: mouse, in vivo, po.
For data set [2], the system named is rats. Kind of data set: Behavioural test in rats, modified after Irwin. It is filed as in vivo. From the text:
2. Behavioural test in rats, modified after Irwin, Psychopharmacologica. (Berl.); 13, pgs. 222-257 (1968).

Data set [3] is described as follows: Prolongation of evipan sodium narcosis. It counts as in vivo. The text has this: 3. Prolongation of evipan sodium narcosis, Arch. Int. Pharmacodyn; 126, pgs. 219-227 (1960).
The subject of data set [4] is dogs. Kind of data set: Alphalysis (alphalytic activity) in dogs. Conditions: for alphalytic activity: from 1 mg./kg. i.v. It counts as in vivo. How it is done:
4. Alphalysis, Medizinische Wochenschrift; 81, pg. 352 (1951).
The alphalytic activity of the compounds of Examples 8 and 9 was tested on dogs.

As usually defined, the LD50 is the dose at which mortality reaches 50%. Read a low LD50 as a more toxic substance. For `COc1cc2c(cc1OC)-c1cc(OC)c(OC)c3c1C(C2)CN(C)C3` (racemic) [Example 10, (±)-5,6,6a,7-Tetrahydro-2,3,9,10-tetramethoxy-5-methyl-4H-dibenz(de,g)isoquinoline], in data set [1], the LD50 is around 1200 mg/kg. Further, in data set [2] (150 mg./kg.), the catatonia entry is on record as “catatonia”, the muscle tonus result was “reduced muscle tonus” and the sedation entry was “sedation”. Besides, the “prolongation of the sleeping time in %” value in data set [3] (dosage 50 mg./kg.) was 268%. Besides, the “prolongation of the sleeping time in %” value in data set [3] (dosage 100 mg./kg.) was determined as 347%.
`COc1cc2c3c(c1OC)CN(C)CC3Cc1cc3c(cc1-2)OCO3` (racemic) [Example 9, (±)-5,6,6a,7-tetrahydro-2,3-dimethoxy-9,10-methylenedioxy-5-methyl-4H-dibenz(de,g)isoquinoline] showed an LD50 in data set [1] of around 1200 mg/kg. Besides, in data set [2] (150 mg./kg.), the catatonia result is “catatonia”, the “lowering of the body temperature” value is “lowering” and the sedation result is listed as “sedation”. Also, the “behaviour (change of symptoms versus 150 mg./kg.)” value in data set [2] (300 mg./kg., symptoms at 150 mg./kg.: sedation, catatonia, lowering of the body temperature) was “strengthening of the symptoms”. Moreover, in data set [3] (dosage 50 mg./kg.), the “prolongation of the sleeping time in %” value is 339%. Besides, the “prolongation of the sleeping time in %” value in data set [3] (dosage 100 mg./kg.) is 417%. The alphalytic activity entry in data set [4] was “a distinct alphalytic activity is detectable”.
With `COc1cc2c(cc1OC)-c1c(OC)c(OC)cc3c1C(CNC3)C2` (racemic) [Example 7, (±)-5,6,6a,7-Tetrahydro-1,2,9,10-tetramethoxy-4H-dibenz(de,g)isoquinolin], the LD50 in data set [1] is around 600 mg/kg. Also, in data set [2] (150 mg./kg.), the catatonia entry was “catatonia”, the “lowering of the body temperature” value was “lowering of the body temperature”, the ptosis result is “ptosis” and the sedation entry was “sedation”. In addition, the “prolongation of the sleeping time in %” value in data set [3] (dosage 50 mg./kg.) was 147%. In addition, the “prolongation of the sleeping time in %” value in data set [3] (dosage 100 mg./kg.) was found to be 324%.
In data set [1], `COc1cc2c(cc1OC)-c1c(OC)c(OC)cc3c1C(C2)CN(C)C3` (racemic) [Example 8, (±)-5,6,6a,7-Tetrahydro-1,2,9,10-tetramethoxy-5-methyl-4H-dibenz(de,g)isoquinoline] had an LD50 of 800 mg/kg. In data set [2] (300 mg./kg.), the catatonia entry is “catatonia”, the “lowering of the body temperature” value is listed as “lowering”, the muscle tonus entry is given as “reduced muscle tonus” and the ptosis result was “ptosis”. Moreover, the sedation entry in data set [2] (300 mg./kg.) is “sedation”. Also, the “prolongation of the sleeping time in %” value in data set [3] (dosage 50 mg./kg.) is listed as 64%. Moreover, in data set [4], the alphalytic activity result was “a distinct alphalytic activity is detectable”. The “alphalytic action after intraduodenal administration” value in data set [4] (intraduodenal) is on record as “the action could also be confirmed after intraduodenal administration”.
